# Like-named read-outs stand apart in the source and are kept apart here. Where no end group is shown, it is not given here.
# Tests used:
# HeLa cells = experiment: Cellular uptake of FITC-labelled peptide, fluorescence microscopy; type: cell-based; settings: for entry of free peptide into cells: peptide alone, without Pep-1
# Procedure: HeLa cells were cultured in Dulbecco's modified Eagle's medium (DMEM) supplemented with 10% fetal calf serum at 37° C. in a humidified atmosphere containing 5% CO2.). H9 cell lines (ATCC number: HTB-176) were stably transfected with pNL4.3 V−R+plasmid (AIDS Research Reference Reagent Program, National Institutes of Health (NIH), USA) and therefore expressed in a constitutive manner all HIV-1 proteins but Env encoded proteins. They were cultured in RPMI-1640 medium supplemented with 2 mM glutamine, 10% (w/v) foetal calf serum (FCS), 1% antibiotics (streptomycin […], penicillin, 10 000 IU/ml), as well as G418 1 mg/ml. Cells were grown on glass coverslips to 75% confluency, then transfected with pcDNA3-p66RT plasmid (this plasmid contains the 66 subunit of HIV-1 Reverse Transcriptase cloned in pcDNA3.1 (+) vector (Invitrogen, USA), using HindIII and BamHI restriction site) using Lipofectamine 2000 reagent according to manufacturer' instructions (Invitrogen). Hela cells were subsequently cultured for 32 h, before incubation with FITC-PAW or FITC-PAW/Pep-1 (complex obtained at a molar ratio 1/10) for 1 h. Coverslips were extensively rinsed with PBS and cells were fixed in 4% paraformaldehyde for […] and permeabilized in 0.2% Triton. After saturation in PBS supplemented with bovine serum albumine 1% for 1 h, cells were incubated overnight with monoclonal 8C4 anti-HIV-1 RT antibody (AIDS Research Reference Reagent Program, NIH) (diluted 1:100 in PBS-BSA 1%), followed by Alexa-555 anti-mouse (Molecular Probes).
# Immunofluorescence detection of HIV-1 RT and FITC-PAW was performed by epifluorescence microscopy using a PL APO 1.4 oil PH3 objective on a LEICA DMRA 1999 microscope. 3D reconstitution of the 20 frames realized from z stacking was performed using Imaris 6.0 software.
# Cells were grown on acid-treated glass coverslips to 60% confluence. Once rinsed with PBS, cells were overlaid with preformed complexes and incubated for 40 minutes at 37° C. Cells were then rinsed twice with PBS and fixed […] at Room Temperature) (RT° in Paraformaldehyde 4%, and washed three times in PBS+2% BSA. They were then permeabilised by incubation 10 min RT° in PBS+0.5% Triton X-100, washed again 3 times in PBS+2% BSA. After blocking 20 min in the same solution, the coverslips were placed in a humid chamber, overlaid with 75 μl of primary antibody against Integrase, and incubated for 2 h at 37° C. Coverslips were then rinced once with PBS and incubated with 75 μl of anti rabbit antibody diluted 1/10000 in PBS. After immobilisation on the cover using Prolong Gold antifade reagent, cellular localization of Integrase as well as FITC-labelled peptides was monitored by fluorescence microscopy, using a PL APO 1.4 oil PH3 objective on a LEICA DMRA 1999 microscope. […]
# HIV-1 RT [1] = molecular target: T1, HIV-1 RT (Human immunodeficiency virus type 1 group M subtype B, UniProt P03366); experiment: biochemical
# T1 construct: The heterodimeric p66/p51 RT was eluted with an imidazole gradient; p66 and p51 derived from p66 by proteolytic cleavage of the C-terminal RNAse H domain; made in house; host or cells: E. coli (M15 for the His-tagged subunits)
# Procedure: RNA-dependent-DNA RT-polymerase activity was measured in a standard reaction assay using poly(rA)-(dT)15 as template/primer as described in Restle et al. (1990). Ten microliters of reverse transcriptase (RT) at 20 nM was incubated at 37° C. for 30 min with 20 μL of reaction buffer (50 mM Tris, pH 8.0, 80 mM KCl, 6 mM MgCl2, 5 mM DTT, 0.15 μM poly(rA-dT), 15 μM dTTP, 0.3 μCi 3H-dTTP). For peptide evaluation, HIV-1 RT was incubated with increasing concentrations of peptide inhibitors for […], and polymerase reaction was initiated by adding reaction buffer. Reactions were stopped by precipitation of nucleic acids with 5 ml of 20% trichloroacetic acid (TCA) solution for 2 h on ice, then filtered using a multiwell-sample collector (Millipore), and washed with 5% TCA solution. Filters were dried at 55° C. for 30 min and radionucleotide incorporation was determined by liquid scintillation spectrometry.
# A series of peptides have been derived from Pep-A sequence (SEQ ID NO: 28), which is derived from HIV-1 reverse transcriptase. First, P1 peptide (SEQ ID NO: 1) was obtained by removing the N-terminal arginine of Pep-A. Then, additional peptides were generated by performing an alanine scan on P1. P1-derived peptides were evaluated using a standard polymerase RT assay. Reported data correspond to the mean of three separate experiments.
# HIV-1 RT [2] = molecular target: T2, HIV-1 RT (Human immunodeficiency virus type 1 group M subtype B, UniProt P12497); experiment: RT pull-down with peptide-CNBr Sepharose beads, H9 cell lysates; type: binding; settings: Western blotting
# T2 construct: asymmetric heterodimer that consists of two subunits, p66 and p51; expressed in transfected cells; host or cells: H9 cells (ATCC HTB-176) stably transfected with pNL4.3 V-R+
# Procedure: For RT pull down experiments, PAW (SEQ ID NO: 18) was incubated with 500 μl of activated CNBr-activated Sepharose 4B beads at 4° C. overnight. After centrifugation, supernatants were removed and the beads were incubated with Glycine pH.8.0 for 2 hrs at 4° C. with gentle stirring. The beads were then washed with 0.1 M sodium acetate buffer (pH 4.0), then 0.5 M Bicarbonate buffer, and finally in PBS, three times each. The peptide bound to the beads were then saturated for 30 min in PBS/BSA 0.1% and then incubated for 1 h at 4° C. with equal amounts of H9 cells lysed for […] on ice in Lysis buffer (Tris 20 mM, pH 7.2, NaCl 400 mM, EDTA 1 mM, DTT 1 mM, Protease inhibitors EDTA free) and sonicated 2×5 sec. at 20%. Beads were washed with Lysis buffer then twice with PBS and the bound proteins were finally separated on 15% SDS-PAGE gel and analyzed by Western Blotting using monoclonal 8C4 anti-HIV-1 RT antibody.
# [3] = system: uninfected PHA-P-activated PBMC; experiment: Cytotoxicity, MTT assay in uninfected PBMC; type: cell-based
# Procedure: The anti-HIV activities of the peptides were assayed according to the methods described in Roisin et al. (2004). Phytohemagglutinin-P(PHA-P)-activated peripheral blood mononuclear cells (PBMC) treated by increasing concentrations of peptide (from 100 to 0.1 nM), one hour later, were infected with hundred 50% tissue culture infectious doses (TCID50) per 100,000 cells of the HIV-1-LAI strain (Barre-Sinoussi et al., 1983). This virus was amplified in vitro on PHA-P-activated PBMC. Viral stock was titrated using PHA-P-activated PBMC, and 50% TCID50 were calculated using Kärber's formula (Kärber, 1931). Samples were maintained throughout the culture, and cell supernatants were collected at day 7 post-infection and stored at −20° C. Viral replication was measured by quantifying reverse transcriptase (RT) activity in cell culture supernatants. In parallel, cytotoxicity of the compounds was evaluated in uninfected PHA-P-activated PBMC by colorimetric 3-(4-5 dimethylthiazol-2-yl)2,5diphenyl tetrazolium bromite (MTT) assay on day 7 (as described in Mossmann, 1983). Experiments were performed in triplicate and repeated with another blood donor. […]
# HIV-1 RT [4] = molecular target: T1, HIV-1 RT; experiment: RT dissociation kinetics with bis-ANS, stopped flow; settings: read-out: dissociation rate constant kdis of RT
# Procedure: Dissociation kinetics of HIV-1 RT were monitored by using 4,4′-Bis(1-anilinonaphthalene 8-sulfonate (bis-ANS) as extrinsic probe. Changes in bis-ANS fluorescence provide a good signal to probe variation in the exposure of the hydrophobic regions associated to RT dissociation in a time-dependent manner. 0.5 μM of RT was dissociated in presence of 0.8 μM of bis-ANS, by adding 10% acetonitrile in the absence or in the presence of 10 μM PAW. Kinetics of dissociation were monitored by following fluorescence resonance energy transfer between tryptophan residues of RT and bis-ANS. Excitation of RT-Trp residues was performed at 290 nm and the increase of bis-ANS fluorescence emission at 490 nm was detected through a 420 nm cut-off filter. Data acquisition and analysis were performed using KinetAsyst 3 software (Hi-Tech Scientific, Salisbury, England-UK) and traces were fitted according to a single exponential equation.
# RT:p/t = molecular target: T3, RT:p/t (Human immunodeficiency virus type 1 group M subtype B, UniProt P03366); experiment: Steady-state fluorescence titration, PAW binding to RT:p/t; set-up: species or system HIV-1
# T3 construct: The heterodimeric p66/p51 RT was eluted with an imidazole gradient; p66 and p51 derived from p66 by proteolytic cleavage of the C-terminal RNAse H domain; made in house; host or cells: E. coli (M15 for the His-tagged subunits)
# Procedure: (§1) Fluorescence experiments were performed in buffer containing 50 mM Tris-HCl, pH 8.0, 50 mM KCl, 10 mM MgCl2 and 1 mM DTT, at 25° C., using a SPEX-PTI spectrofluorimeter in a 1 cm path-length quartz cuvette, with a band-pass of 2 nm for excitation and emission, respectively. Excitation was performed at 492 nm and emission spectra were recorded from 500 to 600 nm. According fluorescence experiments, a fixed concentration of FAM-labelled (19/36) p/t (50 nM) or of FITC-PAW (200 nM) was titrated with increasing protein concentrations from 5 nM to 1 μM. Data were fitted as described in Agopian et al. (2007) and Rittinger et al. (1995), using a quadratic equation (GraFit, Erithacus Software).
# HIV-1 p51 = molecular target: T4, HIV-1 p51 (Human immunodeficiency virus type 1 group M subtype B, UniProt P03366); experiment: Size exclusion chromatography of p51 dimerization; settings: p51 3.5 μM, FITC-labelled PAW 20 μM, 1 h
# T4 construct: His; made in house; host or cells: E. coli M15
# Procedure: Chromatography was performed using one (Phenomenex 53000) or two HPLC columns in series (Phenomenex 53000 followed by Phenomenex 52000; both 7.5 mm×300 mm). Samples containing 3 to 10 μM of RT or p51 were applied onto one or two HLPC columns and eluted with 200 mM potassium phosphate (pH: 7.0) at a flow rate of 0.5 ml·min^−1 (5).
# HIV-1 integrase [5] = molecular target: T5, HIV-1 integrase (Human immunodeficiency virus type 1 group M subtype B, UniProt P04585); experiment: IN 3′-processing activity, gel-electrophoresis procedure; type: biochemical; settings: read-out: IC50 3′-proc
# T5 construct: Integrase is a 32 kDA viral protein that is biologically active under a multimeric form
# Procedure: In order to verify the influence of the fluorescent probe attached to PAW on the peptide-integrase interaction, a standard gel-electrophoresis procedure (as described in Smolov et al., 2006) was carried out to examine the IN 3′-processing activity as a function of either unlabeled or fluorescein-labeled PAW concentration.
# heterodimeric RT = molecular target: T6, heterodimeric RT (Human immunodeficiency virus type 1 group M subtype B, UniProt P03366); experiment: Steady-state fluorescence titration of FITC-PAW with RT; set-up: species or system HIV-1; settings: 200 nM FITC-PAW titrated with RT; read-out: dissociation constant (Kd), binding to heterodimeric RT
# T6 construct: The heterodimeric p66/p51 RT was eluted with an imidazole gradient; p66 and p51 derived from p66 by proteolytic cleavage of the C-terminal RNAse H domain; made in house; host or cells: E. coli (M15 for the His-tagged subunits)
# Procedure: as §1
# HIV-1 integrase [6] = molecular target: T7, HIV-1 integrase (Human immunodeficiency virus type 1 group M subtype B, UniProt P12497); experiment: Integrase pull-down with CNBr Sepharose beads; type: binding; settings: H9 or HeLa HA-IN cell lysates, western blotting
# T7 construct: expressed in transfected cells; host or cells: H9 cells with pNL4.3 V-R+; HeLa cells stably expressing HA-tagged IN
# Procedure: Peptides were resuspended in buffer A (1 mg/ml), sonicated 4 min, and incubated with 500 μl (gel volume) of activated CNBr-activated Sepharose 4B sepharose© beads at 4° C. overnight. After centrifugation, supernatants were removed and the beads were incubated with Glycine pH.8 for 2 hours at 4° C. with gentle stirring. The sedimented Sepharose beads were then washed in 0.1 M Sodium Acetate buffer (pH 4), 0.5 M Bicarbonate buffer, and finally in PBS, three times each. The peptides bound to the beads were then saturated for 30 minutes in PBS BSA 0.1% and then incubated for 1 h at 4° C. with equal amounts of cell lysate (H9 or Hela-IN) prealably lysed for 30 min on ice in Lysis buffer (Tris 20 mM, pH 7.2, NaCl 400 mM, EDTA 1 mM, DTT 1 mM, Protease inhibitors EDTA free (Roche Diagnostics) and sonicated twice for 5 sec. at 20%. Beads were washed once in Lysis buffer, and twice in PBS. They were finally resuspended in Laemli blue, migrated on 15% SDS-PAGE gels and analysed by Western Blotting.
substance,measurement,setting,value
GTKALTAVIPLTEEAE [Peptide P8],entry of free peptide into cells,HeLa cells,not able to enter cells alone
same,Ki,HIV-1 RT [1],57 ± 19 µM
same,reduction of efficiency of the peptide in comparison to P1,HIV-1 RT [1]; relative to P1,8 fold
same,"stable complex with RT, retention of RT on beads",HIV-1 RT [2],no RT was associated
GTKWLTEWIPLTAEAE-NH2 [PAW],entry of free peptide into cells,HeLa cells,not able to enter cells alone
same,toxic effect,[3],without any toxic effect
same,koff,HIV-1 RT [4],1.42 ± 0.007 s⁻¹
GTKWLTEWIPLTAEAEC-FITC [PAW-FITC],time to enter cells,HeLa cells; complexed with Pep-1 at 1/10 molar ratio,less than 1 h
same,entry of free peptide into cells,HeLa cells,poorly enters
same,Ki,"HIV-1 RT [1]; Dixon plot, mean of three separate experiments, read-out: Ki (μM), inhibition of polymerase activity of HIV-1 RT",2.7 ± 0.7 µM
same,reduction of efficiency (higher Ki) relative to PAW,HIV-1 RT [1]; relative to PAW,3.8 fold
same,lower Kd of labelled FITC-PAW over unlabelled peptide,RT:p/t,5.6 fold
same,Kd,"RT:p/t; FITC-PAW fluorescence quenching, read-out: Kd, FITC-PAW binding to RT first incubated with DNA/DNA p/t",7.1 ± 2.8 nM
same,increase of affinity for RT in the presence of p/t,RT:p/t; relative to RT without p/t,5 fold
same,p51 dimeric and associated to PAW,HIV-1 p51,4.6%
same,IC50,HIV-1 integrase [5],10000 nM
same,Kd,heterodimeric RT,33 ± 10 nM
"Pep-7: decapeptide (SEQ ID NO: 32) mimicking p66/p51 interface that prevents reverse transcriptase-dimerization (KETWETWWTE; Pep-7 ; described in Morris et al., 1999, JBC, 274, 24941-24946)",interaction with IN in pull-down,HIV-1 integrase [6],does not bind IN
